Results reported in patent publication US20230242885A1, “METHOD OF PRODUCING CARDIOMYOCYTE POPULATION, METHOD OF PROLIFERATING CARDIOMYOCYTES, CARDIOMYOCYTE POPULATION, TRANSPLANTATION MATERIAL, MULTINUCLEATED CARDIOMYOCYTE, AND KIT FOR PROLIFERATING CARDIOMYOCYTES” (Myoridge Co. Ltd., priority 2020, published 2023).

Legend:
[1] = system: cardiomyocyte population (third serial subculture); assay: Drug responsiveness test by calcium imaging; type: cell-based, human; details: terfenadine 300 to 900 nM; calcium signal 10 minutes after addition
Method: The obtained cardiomyocyte population was tested for drug responsiveness. A drug responsiveness test was performed by calcium imaging using a fluorescence microscope. Specifically, the drug responsiveness test was performed by acquiring pulsatile calcium fluorescence movies of cardiomyocytes on a fluorescence microscope Olympus IX83.
In the drug responsiveness test, a mixture having the following composition was adjusted to pH 7.4 and used as a culture solution for cardiomyocytes:
ImageJ-based image analysis software was used for data analysis.

[2] = system: cardiomyocytes induced from human iPS cells (253G1 strain); assay: Proliferation culture of cardiomyocytes with WNT signal activator CHIR99021, serial subculture (Example 2); type: cell-based; details: for cTnT positive rate (cardiomyocyte purity): CHIR99021 added (1 to 5 μM); for proliferation rate compared with no CHIR99021: CHIR99021 1 to 5 μM; for total cardiomyocyte proliferation: 2.0×10^5 cells/cm^2
Method: A “ratio of multinucleated cardiomyocytes” was determined from a percentage of multinucleated cardiomyocytes in 10,000 cardiomyocytes.
Thereafter, the culture medium was replaced every 3 to 4 days, and culturing was performed for 2 weeks (a first serial subculture).
For the cells obtained after each serial subculture, “cardiomyocyte purity”, “cardiomyocyte proliferation rate”, “ratio of multinucleated cardiomyocytes”, and “average maximum length of multinucleated cardiomyocytes” were determined according to the same procedure as in Example 1.

In the case of `CC(C)(C)c1ccc(C(O)CCCN2CCC(C(O)(c3ccccc3)c3ccccc3)CC2)cc1` (stereo not drawn) [terfenadine], the “early afterdepolarization (EAD) response” value [1] is reported as “detected”.
For `Cc1cnc(-c2cnc(NCCNc3ccc(C#N)cn3)nc2-c2ccc(Cl)cc2Cl)[nH]1` [CHIR99021, 6-[2-[[4-(2,4-dichlorophenyl)-5-(5-methyl-1H-imidazol-2-yl)pyrimidin-2-yl]amino]ethylamino]pyridine-3-carbonitrile], the “cTnT positive rate (cardiomyocyte purity)” value ([2]; after the first serial subculture, before culturing 90 to 96%) was at least 90%, the “cTnT positive rate (cardiomyocyte purity)” value ([2]; after the second serial subculture) was at least 90% and the “concentration of CHIR99021 at which the cardiomyocyte proliferation rate was the highest” value ([2]; first and second serial subculture, tested 1, 2, 3, 5 μM) was 3 µM. For the same molecule, the cardiomyocyte proliferation rate ([2]; first serial subculture (2 weeks), seeding density 2.0×10^5 cells/cm^2, CHIR99021 3 μM) was 4.5 fold, the “proliferation rate compared with no CHIR99021” value ([2]; first serial subculture) was “higher proliferation rates” and the total cardiomyocyte proliferation ([2]; in total after the second serial subculture, CHIR99021 3 μM) was 12.6 fold. For the same molecule, the total cardiomyocyte proliferation ([2]; in total after the third to fourth serial subcultures, CHIR99021 3 μM) was 22.7 fold and the “proliferation rate compared with no CHIR99021” value ([2]; second serial subculture) was “higher proliferation rates”.
